Measured values published in the METLIN SMRT retention time set (Domingo-Almenara et al. 2019).

Assay: gradient 5% acetonitrile 3 min, to 50% in 2 min, to 85% in 15 min, held 3 min, 100 µL/min
Settings: column: Zorbax Extend-C18 2.1 x 50 mm; eluents: water / acetonitrile, 0.1% formic acid
How it was run: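 The mobile phases were water and acetonitrile, each with 0.1% formic acid, pumped at 100 μL/min through a Zorbax Extend-C18 column (2.1 × 50 mm, 1.8 μm). Pure standards were injected as mixtures of ~100 molecules and detected by a quadrupole time-of-flight mass spectrometer in positive and negative ionization mode. Retention time came from computationally picked adduct peaks, each inspected by hand.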

Structure (SMILES) | RP-LC retention time [s]
O=C1CCCc2cc(S(=O)(=O)N3CCC(C(=O)NCc4cccs4)CC3)ccc2N1 | 695
O=C(NCc1ccc(Cl)cc1)c1cn2c(n1)CCCC2 | 621
Cn1c(N2CCCC(C(=O)NCCCN3CCN(c4ccccc4)CC3)C2)cc(=O)n(C)c1=O (stereo unspecified) | 600
O=C(NCCc1cccs1)C1CCCN(c2nc3ccsc3c(=O)n2Cc2ccc(F)cc2)C1 (stereo unspecified) | 936
O=C(Nc1cccc(C(=O)NCCC2=CCCCC2)c1)C1=CSCCO1 | 925
O=C(NC1CCCCCCC1)c1nnc(-c2ccc(S(=O)(=O)N3CCCCC3)cc2)o1 | 754
COCc1cc(=O)n(Cc2ccccc2)c(N2CCCC2)n1 | 777
COc1ccc(CNC(=O)c2ccc3c(=O)n(-c4cccc(OC)c4)c(N4CCCC4)nc3c2)cc1 | 833
CN(C)[C@@H]1CN(C(=O)c2ccsc2)CC[C@]1(O)c1ccccc1 | 576
CCC(C)NC(=O)c1cc(-c2ccc(Cl)cc2)[nH]c1C (stereo unspecified) | 923
COCCn1cc(CCNC(=O)Nc2ccc(F)cc2F)c2cccnc21 | 729
O=C(Cc1ccccc1Cl)N1CCc2nc[nH]c2C1 | 584
Cn1cnc(S(=O)(=O)N2CC(Oc3ccc(-c4noc(C5CC5)n4)cc3)C2)c1 | 794
COc1ccc(N(CCC#N)S(=O)(=O)c2cccc3nsnc23)cc1 | 789
Cc1ccccc1NS(=O)(=O)c1cc2c(=O)n(C)ncn2c1 | 801
COc1ccc(OC)c(NS(=O)(=O)c2ccc(-c3nnc(C4CCC4)o3)o2)c1 | 893
O=C(NCCN1CCOCC1)c1ccc(Nc2c(-c3ccc(Cl)cc3)nc3cnccn23)cc1 | 620
O=C(NC1CCN(Cc2ccccc2)CC1)C1CCCN(S(=O)(=O)N2CCOCC2)C1 (stereo unspecified) | 593
CC(C)CCNC(=O)c1nnc(-c2ccc(S(=O)(=O)N(C)C)cc2)o1 | 877
O=C(NCC1(c2ccccc2)CCOCC1)C(=O)Nc1cc2c3c(c1)CCC(=O)N3CCC2 | 762
CC(c1ccccc1)N1CC(=O)N(c2ccc(Cl)cc2)[C@@H]2CS(=O)(=O)C[C@@H]21 (stereo partly specified) | 853

The remaining lines, values ahead:

RP-LC retention time [s] | Structure (SMILES)
1080 | COC(=O)c1cc(C)nc2c1c(=O)n(Cc1ccc(Cl)cc1)c(=O)n2C
996 | Cc1nn(-c2ccc(-c3ccccc3)nn2)c(C)c1S(=O)(=O)N1CCCC1
1220 | Cc1ccc(C)c(-c2cc3c(=O)n(Cc4nc(-c5ccc(Cl)cc5)no4)ncn3n2)c1
1120 | CCCN(c1ccc(OCC)cc1)c1nc(C(=O)OCC)nc2ccccc12
1280 | Cc1oc(-c2ccc(Cl)cc2)nc1COc1cc(C)c2c(C)nn(C)c2n1
947 | CCn1cc(-c2nc(C)c(C(=O)NCc3cccc(F)c3)s2)c2cccnc21
970 | COC(=O)c1cc(OCC(=O)Nc2cc(Cl)ccc2OC)c2cc(OC)ccc2n1
808 | CCCn1cc(CCNC(=O)Nc2cc(C)ccc2C)c2cccnc21
972 | CCc1nn2c(CNS(=O)(=O)Cc3cccc(F)c3)c(-c3ccccc3)nc2s1
1220 | Cc1nn(-c2nc(-c3ccccc3)cs2)c(C)c1CC(=O)Nc1ccccc1Cl
876 | CCOc1ccccc1-n1ccn(Cc2nc(-c3cccc(F)c3)no2)c(=O)c1=O
675 | Cc1cccc(CNC(=O)c2cn3cccc(C)c3n2)c1
885 | CCOc1ccc(N2C(=O)C3N=NN(Cc4nc(-c5ccccc5)no4)C3C2=O)cc1 (stereo unspecified)
929 | Cc1cc(C)n(-c2ccc(C(=O)NCc3ccc(F)cc3F)cn2)n1
1050 | O=C(Nc1ccccc1Cl)c1cn(CC2CCCO2)cc2c(=O)n(-c3ccccc3)nc1-2 (stereo unspecified)
